# Data from patent US20190224243A1 (MUSC Foundation for Research Development, priority 2018, published 2019).
# Ends that are not written are not given here.
# Experiments:
# [1] = test system: SSc AT MSCs; assay: adipocyte induction of SSc AT MSCs ± CSD or scrambled peptide (IHC for ASMA and FABP4); assay type: cell-based, human; details: treatment during adipocyte induction
# Description: MSCs from healthy and SSc donors were treated with adipocyte induction medium (AIM), from Lonza to induce adipogenesis.
# (§1) Adipogenic differentiation was induced by incubating cells for 3 cycles of 3 days in Adipocyte Induction Medium (Lonza) plus 1 day in Maintenance Medium. Adipogenic differentiation was analyzed by IHC and/or Western blotting using appropriate antibodies and by staining with an Oil Red 0 kit (Biovision) according to the manufacturer's instructions.
# [2] = test system: Healthy AT MSCs; assay: ASMA staining (IHC) of Healthy AT MSCs treated with CSD, scrambled CSD and TGFβ; assay type: cell-based, human
# Text: Human MSCs were derived from abdominal fat tissue. SSc ILD and SSc No ILD MSCs are a generous gift from Dr. Del Papa (Milan, Italy). Healthy human MSCs are from Dr. Del Papa and from Lonza. Human MSCs were maintained in the medium previously described (Capelli C. et al., 2017, Cell Transplant. 26:841-854). Early passage cells (passage 1 to 3) were used in all experiments except when late passage cells (passage 5) were specifically used in FIG. 1F.
# To induce fibrogenic differentiation in healthy human and mouse MSCs, cells were incubated for 10 days in Maintenance Medium supplemented with TGFβ (10 ng/ml). To determine the effects of knocking down caveolin-1 expression, healthy MSCs were treated with siRNA targeting caveolin-1 according to the manufacturer's instructions (Dharmacon).
# [3] = test system: mice; details: mice receiving CSD treatment; cited from earlier work
# [4] = test system: bleomycin-treated mice; assay: bleomycin minipump mouse model, skin fibrosis (dermal thickness, FABP4 IHC); assay type: in vivo, C57BL/6 mice
# Text: (§2) To create a mouse model for autologous MSC treatment, adipose-derived MSCs were isolated from C57/BL6 mice treated with bleomycin, expanded in vitro, then injected systemically via the retro-orbital sinus or subcutaneously into host C57/BL6 mice that had been treated with bleomycin.
# The Pump Model (Lee R. et al., 2014, Am. J. Physio. Lung Cell. Mol. Physio. 306:L736-748) is used both to generate MSC donors and host mice receiving MSC therapy. Briefly; under isoflurane anesthesia, mini-osmotic pumps (ALZET 1007D; DURECT Corporation, Cupertino, Calif.) containing 100 μl of bleomycin (67 U/kg) or saline are implanted posterior to the scapulae of 8-10 week old C57BL/6 mice. […]
# On day 24, under anesthesia the rib cage was opened, mice systemically perfused via the left ventricle with PBS, then further perfused with Z-Fix (Anatech). […] Lung tissue morphology was evaluated by the Ashcroft Method (Ashcroft T. et al., 1988, J. Clin. Pathol. 41:467-470). Skin tissue morphology was evaluated in terms of the thickness of the dermis and the subdermal adipose layer. Tissue sections were also analyzed by IHC using routine methods (Lee R. et al., 2014, Am. J. Physio. Lung Cell. Mol. Physio. 306:L736-748; Lee R. et al., 2014, Frontiers in Pharma. 5:140; Lee R. et al., 2015, Fibrogen. Tissue Repair, 8:11) and appropriate antibodies.
# [5] = test system: TGFβ-activated monocytes; assay: monocyte migration toward SDF-1; assay type: cell-based, human
# Description: Migration experiments were performed using TGFβ-activated monocytes and 100 ng/ml of the chemokine SDF-1 as chemoattractant (Tourkina et al., 2011, Fibrogenesis Tissue Repair, 4:15). Cells were treated with the indicated concentrations of the indicated peptides. Cells that had migrated were counted in six high power fields per filter. Migration is expressed in terms of “Inhibition of Migration”. Each experiment included Control monocytes and the same monocytes treated with TGFβ which enhanced their rate of migration approximately three-fold. […] Intermediate degrees of inhibition were quantified on a linear basis.
# To study the structure-activity relationship of CSD to identify an optimal version to be developed for treating fibrotic diseases in human patients, subdomains of CSD were tested for their ability to inhibit the migration of human monocytes. Monocytes from healthy subjects were used which, when activated using TGFβ, migrate at an enhanced rate similar to monocytes from SSc patients (Tourkina et al., 2011, Fibrogenesis Tissue Repair, 4:15).
# [6] = test system: bleomycin-treated mice; assay: bleomycin minipump mouse model, lung fibrosis (Ashcroft score, ASMA and HSP47 IHC); assay type: in vivo, C57BL/6 mice
# Text: as §2
# The Pump Model (Lee R. et al., 2014, Am. J. Physio. Lung Cell. Mol. Physio. 306:L736-748) is used both to generate MSC donors and host mice receiving MSC therapy. Briefly; under isoflurane anesthesia, mini-osmotic pumps (ALZET 1007D; DURECT Corporation, Cupertino, Calif.) containing 100 μl of bleomycin (67 U/kg) or saline are implanted posterior to the scapulae of 8-10 week old C57BL/6 mice. Pumps deliver 0.5 μl/h for 7 days, then are removed by day 10 per the manufacturer's instructions.
# Mice were treated with bleomycin or vehicle using osmotic minipumps (Lee et al., 2014, Am J Physiol Lung Cell Mol Physiol, 306:L736-L748). […] Tissue morphology was quantified by the Ashcroft Method (Ashcroft et al., 1988, J Clin Pathol, 41:467-70). […]
# On day 24, under anesthesia the rib cage was opened, mice systemically perfused via the left ventricle with PBS, then further perfused with Z-Fix (Anatech). […] Lung tissue morphology was evaluated by the Ashcroft Method (Ashcroft T. et al., 1988, J. Clin. Pathol. 41:467-470). Skin tissue morphology was evaluated in terms of the thickness of the dermis and the subdermal adipose layer. […]
# [7] = test system: animal model for ILD; details: cited from earlier work
# [8] = test system: Healthy AT MSCs differentiated into adipocytes; assay: Healthy AT MSCs already differentiated into adipocytes, then treated ± TGFβ ± CSD, Western blotting; assay type: cell-based, human
# Description: To induce MSCs or adipocytes into a profibrotic phenotype, the cells were cultured in the presence of TGFβ.
# as §1
# MSC cultures were rinsed with PBS. Lysis Buffer (20 mM Tris-HCl (pH 7.5)/1% NP-40/100 mM NaCl/5 mM EDTA/2 mM KCl) supplemented with 1 mM phenylmethylsulfonyl fluoride, protease inhibitor mixture Set V (Calbiochem), and phosphatase inhibitors (10 mM sodium pyrophosphate, 5 mM NaF, 10 mM beta-glycerophosphate, and 10 mM sodium orthovanadate) was added to the plates, the cells scraped into the buffer, frozen, thawed, and the extract clarified by centrifugation (10 min, 12,000 rpm, RT). The protein content of the supernatants was determined, sample buffer added, and the samples were boiled. 5 to 40 μg of protein was loaded per lane depending on the avidity of the primary antibody to be used for detection.
# [9] = TGFβ after adipocyte differentiation
molecule,measurement,setting,value
"DGIWKASFTTFTVTKYWFYR-NH2 [CSD, caveolin-1 scaffolding domain peptide, amino acids 82-101 of caveolin-1]",number of ASMA+ cells,[1],decreased
same,number of FABP4+ cells,[1],increased
same,enhanced ASMA expression in cells treated with TGFβ,[2]; healthy MSCs + TGFβ,inhibited
same,baseline expression of ASMA,[2]; healthy MSCs without TGFβ,inhibited
same,share of treated mice with beneficial effect on lung morphology,[3],greater than 50%
same,loss of the intradermal adipose layer (FABP4 staining),[4],reversed
same,TGFβ-induced migration,[5]; 50 pg/ml peptide,decreased essentially to the uninduced level
same,inhibition of TGFβ-induced migration,[5]; levels as low as 0.005 pg/ml,Substantial inhibition
same,ASMA levels in the bleomycin-treated lung,[6],greatly decreased
same,dose working in inhibiting fibrosis,[7],1 mg/kg/day
same,effectiveness relative to pirfenidone in inhibiting fibrosis,[7],300 fold
same,AKT activation,[8]; [9],restored
same,FABP4 expression,[8]; [9],did not restore
same,fibrogenic effect of TGFβ: increased ASMA expression,[8]; [9],reversed
same,fibrogenic effect of TGFβ: increased Col I expression,[8]; [9],reversed
same,p38 activation,[8]; [9],inhibited
same,PPARγ expression,[8]; differentiated adipocytes,Neither TGFβ nor CSD affected
same,caveolin-1 expression,[8]; differentiated adipocytes,Neither TGFβ nor CSD affected
"Cc1ccc(=O)n(-c2ccccc2)c1 [pirfenidone, reference compound]",dose working in inhibiting fibrosis,[7],300 mg/kg/day
